Reference: PMC7349657, “Efficient Targeted Degradation via Reversible and Irreversible Covalent PROTACs” (Journal of the American Chemical Society, 2020)

What was measured:
wild-type BTK = wild-type BTK (Homo sapiens, UniProt Q06187); assay: In vitro kinase activity assay, wild-type BTK (Nanosyn)
BTK [1] = target: T1, BTK (Homo sapiens, UniProt Q06187); assay: BTK degradation in Mino cells, dose-response Western blot; format: cell-based; set-up: endogenous in cells; host or cells: Mino (ATCC CRL-3000), Ramos (ATCC CRL-1596), K562 (NCI-60); settings: MINO, 24 h, read-out: Dmax (maximal degradation)
Procedure: We evaluated the ability of the compounds to induce degradation of BTK in human cell lines. We incubated Mino cells with the compounds and followed BTK levels after 24 h by Western blot (Figure 2, Supporting Figure 2). […] The irreversible acrylamides IR-1 and IR-2 and the cyanoacrylamide RC-3 followed closely with DC50’s under 10 nM and Dmax near 90%. […] We conducted metabolomics studies to estimate if cellular penetration and stability may contribute to the relative potencies (Supporting Table 2). NC-1 and RC-3 reached an effective concentration that was ∼2 times higher than IR-2 and ∼10 times higher than RC-2. Therefore, the lower potency of RC-2 can at least in part be explained by lower permeability or stability.
Figure 2 Efficient BTK degradation in cells. (A) Western blot evaluation of BTK levels in Mino cells in response to various concentrations of RC-2, IR-2, NC-1, and RC-3, after 24 h of incubation. (B) Quantification of BTK levels in (A) by normalization to the β-actin house-keeping gene in Mino cells. DC50 and Dmax were calculated by fitting the data to a second-order polynomial using Prism software. (C) Summary of the DC50 and Dmax values for the PROTACs in Mino cells described in (A) and Supporting Figure 2. TEXT PRINTED IN THE PICTURE: (C) NC-1: DC50 (nM): 2.2; Dmax (%): 97 | (C) IR-1: DC50 (nM): 8.6; Dmax (%): 91 | (C) IR-2: DC50 (nM): 1.9; Dmax (%): 88 | (C) RC-1: DC50 (nM): 10; Dmax (%): 68 | (C) RC-2: DC50 (nM): 35; Dmax (%): 66 | (C) RC-3: DC50 (nM): 6; Dmax (%): 85
(§1) Ramos (ATCC, CRL-1596), Mino (ATCC, CRL-3000), or K562 (NCI-60) cell lines were counted and diluted to 10^6 cell/mL, using 1 mL per well in a 24-well plate, and U2OS (ATCC HTB-96) cells overexpressing human BTK WT or C481S mutant were grown using 2 mL in a six-well plate (see Supporting Information). Cells were incubated with 1% DMSO or compound in indicated concentrations for 24 h unless indicated differently, or cells were left untreated. Lysates were prepared as previously described,[29] and samples were measured for total protein quantification by bicinchoninic acid (BCA) assay (#23225 ThermoFisher Scientific) supplemented with 4× loading buffer including 20 mM DTT, heated to 70 °C for 10 min, loaded into 4% SDS-PAGE gel, run for 45 min at 140 mV, then transferred into a nitrocellulose membrane (Biorad) using a Trans-Blot Turbo transfer system (Biorad). The membrane was stained with Ponceau (Sigma) to validate transfer for 10 min in gentle agitation then destained for 1 h with MQ water. The membrane was blocked with Licor blocking buffer (LIC927-70001) for 1 h, washed three times for 5 min with TBS-T, incubated with primary antibody BTK (D3H5) rabbit mAb (CST; 8547 S) overnight (16 h) at 4 °C, washed three times for 5 min with TBS-T, and incubated with primary antibody against β-actin (CST; 3700) for 1 h at 25 °C. Membrane was washed three times for 5 min with TBS-T, incubated with fluorescent secondary antibodies anti-mouse IgG Alexa Fluor 647 (CST: 4410S) and anti-rabbit-IgG IRDye 800(LICOR: 926-32211) for 1 h, then washed three times for 5 min with TBS-T, dried, and immediately imaged and analyzed using Licor Odyssey CLx. Prism (GraphPad) software was used to calculate degradation levels. We used second-order polynomial fits to estimate DC50 and Dmax values.

BTK [2] = target: T1, BTK; assay: Library screen of BTK abundance by Western blot in K562 or Mino cells; format: cell-based; set-up: endogenous in cells; host or cells: Mino (ATCC CRL-3000), Ramos (ATCC CRL-1596), K562 (NCI-60); settings: 1 μM compound, 24 h
Procedure: We incubated K562 or Mino cells with 1 μM of the compounds for 24 h and measured the abundance of BTK by Western blot (Supporting Figure 1). […] On the basis of compound RC-1 we synthesized additional compounds (Figure 1), RC-2 with a CH2 group replacing the oxygen nearest the β-carbon, their analogous acrylamides IR-1 and IR-2, and the noncovalent analogue NC-1. We also synthesized the cyanoacrylamide RC-3 (Figure 1), replacing the Cα hydrogens with methyl groups. Similar dimethylated cyanoacrylamides were reported to have improved cellular permeability.[34]
Ramos (ATCC, CRL-1596), Mino (ATCC, CRL-3000), or K562 (NCI-60) cell lines were counted and diluted to 10^6 cell/mL, using 1 mL per well in a 24-well plate, and U2OS (ATCC HTB-96) cells overexpressing human BTK WT or C481S mutant were grown using 2 mL in a six-well plate (see Supporting Information). […] Lysates were prepared as previously described,[29] and samples were measured for total protein quantification by bicinchoninic acid (BCA) assay (#23225 ThermoFisher Scientific) supplemented with 4× loading buffer including 20 mM DTT, heated to 70 °C for 10 min, loaded into 4% SDS-PAGE gel, run for 45 min at 140 mV, then transferred into a nitrocellulose membrane (Biorad) using a Trans-Blot Turbo transfer system (Biorad). […]

BTK [3] = target: T1, BTK; assay: Time course of BTK degradation in Ramos and Mino cells; format: cell-based; set-up: endogenous in cells; host or cells: Mino (ATCC CRL-3000), Ramos (ATCC CRL-1596), K562 (NCI-60); settings: 100 nM PROTAC, Ramos cells (RC-3: Mino cells)
Procedure: We followed the rate of BTK degradation facilitated by this compound series via a time course experiment in Ramos and Mino cells (Supporting Figure 3). The rates of degradation correlated well with the DC50 values observed after 24 h, with NC-1, IR-1, IR-2, and RC-3 degrading BTK within 2–4 h, while RC-2 and RC-1 required 6–24 h to reach maximum degradation.
as §1
Supplementary Figure 3: BTK degradation time dependency.
Ramos (PI3I, RC-1, I R-1, R C-2, I R-2, NC-1) or Mino ( RC-3) cells were treated with 100 nM of PROTAC or DMSO for indicated times, subsequently harvested for BTK levels measurement via western blot.
(1 picture or pasted object on this page, not shown here)

BTK [4] = target: T1, BTK; assay: Mechanism validation: pretreatment with ibrutinib, thalidomide-OH or bortezomib before PROTAC in Mino cells; format: cell-based; set-up: endogenous in cells; host or cells: Mino (ATCC CRL-3000), Ramos (ATCC CRL-1596), K562 (NCI-60)

T1 sequence (Q06187 whole entry): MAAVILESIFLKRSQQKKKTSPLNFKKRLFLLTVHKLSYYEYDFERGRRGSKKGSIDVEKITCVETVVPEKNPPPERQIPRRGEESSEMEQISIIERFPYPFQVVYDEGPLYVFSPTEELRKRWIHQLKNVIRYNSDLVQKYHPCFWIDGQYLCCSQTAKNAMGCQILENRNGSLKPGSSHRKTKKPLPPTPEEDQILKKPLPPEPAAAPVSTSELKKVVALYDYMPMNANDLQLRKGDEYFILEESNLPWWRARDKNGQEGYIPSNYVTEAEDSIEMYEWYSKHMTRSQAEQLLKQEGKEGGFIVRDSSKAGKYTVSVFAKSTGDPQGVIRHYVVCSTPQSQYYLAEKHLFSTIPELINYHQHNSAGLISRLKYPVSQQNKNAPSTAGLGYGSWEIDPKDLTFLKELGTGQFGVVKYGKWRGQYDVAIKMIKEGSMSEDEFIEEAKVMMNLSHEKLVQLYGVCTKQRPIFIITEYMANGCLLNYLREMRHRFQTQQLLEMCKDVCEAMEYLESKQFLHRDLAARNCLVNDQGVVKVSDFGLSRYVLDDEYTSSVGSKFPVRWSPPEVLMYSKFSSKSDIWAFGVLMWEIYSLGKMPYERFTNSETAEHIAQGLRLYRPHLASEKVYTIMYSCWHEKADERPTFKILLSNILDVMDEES
wild-type BTK, sequence (Q06187 whole entry, species assumed): as the sequence (Q06187 whole entry) above

**Q.** Which IC50 (wild-type BTK) does the source give for `N#CC(=CCOCCOCCOCCOCCOCCOc1cccc2c1C(=O)N(C1CCC(=O)NC1=O)C2=O)C(=O)N1CCCC(n2nc(-c3ccc(Oc4ccccc4)cc3)c3c(N)ncnc32)C1` (stereo not drawn) [RC-1] here?
**A.** 0.012 µM

**Q.** What about the Dmax (BTK [1]) of the same compound?
**A.** 68%

**Q.** What about the “BTK degradation (abundance of BTK by Western blot)” value (BTK [2]) of the same compound?
**A.** consistent prominent levels of degradation in both cell lines

**Q.** And the “time to degrade BTK / reach maximum degradation” value (BTK [3])?
**A.** 6 to 24 h

**Q.** How did the “effect of proteasome inhibitor on PROTAC-mediated BTK degradation” value (BTK [4]; 1 h bortezomib, then PROTAC 4 h) turn out when `CC(C)C[C@H](NC(=O)[C@H](Cc1ccccc1)NC(=O)c1cnccn1)B(O)O` [bortezomib] was run?
**A.** significantly inhibited degradation

**Q.** Which “effect of pretreatment on PROTAC-mediated BTK degradation” value (BTK [4]; 2 h pretreatment, then PROTAC 24 h) does the source give for `O=C1CCC(N2C(=O)c3cccc(O)c3C2=O)C(=O)N1` (stereo not drawn) [thalidomide-OH] here?
**A.** hindered BTK degradation
